Target: Bruton tyrosine kinase (BTK) (Homo sapiens (Human), UniProt Q06187)
Experiment: BTK Enzyme Activity Testing (in vitro kinase assay, ADP-Glo kinase assay kit)
Assay type: biochemical
Details: BTK kinase (full length with His-Tag), 50 uM ATP in substrate solution, 30 min pre-incubation, 60 min reaction, 10 concentration points
Method: An in vitro kinase assay is used to evaluate the effect of the inventive compounds on Bruton tyrosine kinase (BTK) activity.
The experimental method is generally described as follows:
In vitro activity of BTK is measured by detecting ADP produced in a kinase reaction with an ADP-Glo™ kinase assay kit from Promega Company. In the kinase assay, the kinase consumes ATP to phosphorylate the substrate, while producing ADP. ADP-Glo reagent then terminates the kinase reaction and completely consumes the remaining ATP. Finally, a kinase detection reagent is added to convert generated ADP into new ATP. Luciferase in the detection reagent is capable of catalyzing fluorescein with the participation of ATP and O2 to produce oxidized fluorescein, AMP, and generate light quantum, thereby converting a chemical signal into an optical signal (Luminecence). The intensity of optical signal is positively correlated with the production of ADP in the kinase reaction, so that the activity of kinase BTK can be thereby quantitatively determined.
All assays are conducted at a constant temperature of 23° C., using a Corning 3674 Type white 384-well plate; the BTK kinase (full length with His-Tag) is expressed and purified internally by the company; the substrate of kinase is polypeptide (4:1 Glu,Tyr) (from SignalChem) and ATP (from Sigma); and a microplate reader EnVision (Perkin Elmer) is used for reading an optical signal. The assay buffer includes 40 mM Tris-HCl (pH 7.5), 10 mM MgCl2 (Sigma), 2 mM MnCl2 (Sigma), 0.05 mM DTT (Sigma), and 0.01% BSA (Sigma); the BTK kinase is diluted with the assay buffer to a concentration of 1.6 ng/uL as a kinase reaction solution; and the substrate reaction solution comprises 0.2 mg/mL polypeptide substrate and 50 uM ATP.
Compound's IC50 is calculated from 10 concentration points by the following method. The compound is dissolved and diluted in 100% DMSO to a concentration of 1 mM, followed by a serial 3× dilution with DMSO to a minimum concentration of 0.05 uM. Each concentration stock is further diluted 40× with the assay buffer. To a 384-well assay plate are added 1 uL of a series of compound solutions and 2 uL of the kinase reaction solution, followed by mixing homogeneously, and incubating in the dark at room temperature. After in the dark for 30 min, 2 uL of the substrate reaction solution is added to allowed the total reaction volume to 5 uL. The reaction mixture is incubated in the dark at room temperature in the dark for another 60 min. An equal volume of 5 uL ADP-Glo™ reagent is then added to terminate the reaction. The resulting mixture is homogeneously mixed, and stands at room temperature for 40 min. Finally, 10 uL of the kinase detection reagent is added, stands at room temperature for 30 min, and then a value is read on Envision.
Percent inhibition is calculated based on the following equation: Inhibition %=[1−(RLUcompound−RLUmin)/(RLUmax−RLUmin)]×100 wherein RLUcompound is the luminescence reading at a given concentration of compound, RLUmin is the luminescence reading in the absence of kinase, and RLUmax is the luminescence reading in the absence of compound. IC50 of the compound is calculated by using a XLfit program in Excel.

Chain of Bruton tyrosine kinase (BTK) (Q06187 whole entry): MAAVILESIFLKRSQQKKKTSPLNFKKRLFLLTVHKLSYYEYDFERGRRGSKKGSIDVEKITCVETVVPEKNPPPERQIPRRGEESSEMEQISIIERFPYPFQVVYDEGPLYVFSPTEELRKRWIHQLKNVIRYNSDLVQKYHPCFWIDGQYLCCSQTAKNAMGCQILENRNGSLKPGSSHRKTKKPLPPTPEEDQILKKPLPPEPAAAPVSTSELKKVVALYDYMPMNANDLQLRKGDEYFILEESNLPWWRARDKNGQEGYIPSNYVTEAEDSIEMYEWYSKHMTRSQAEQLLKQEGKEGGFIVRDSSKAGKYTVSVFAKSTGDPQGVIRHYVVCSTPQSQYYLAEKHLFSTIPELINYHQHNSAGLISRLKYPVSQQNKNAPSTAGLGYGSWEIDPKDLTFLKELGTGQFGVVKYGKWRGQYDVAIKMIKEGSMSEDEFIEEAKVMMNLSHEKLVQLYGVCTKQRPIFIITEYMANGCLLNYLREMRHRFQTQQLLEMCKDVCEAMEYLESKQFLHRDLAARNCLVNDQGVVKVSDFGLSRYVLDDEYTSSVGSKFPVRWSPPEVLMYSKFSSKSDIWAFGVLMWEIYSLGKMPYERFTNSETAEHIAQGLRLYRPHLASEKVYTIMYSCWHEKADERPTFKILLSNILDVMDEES

IC50 | SMILES
100 to 500 nM | C=CC(=O)N1CCCC(c2cc3cn[nH]c3c(-c3ccc(CN4CCOCC4)cc3)n2)C1 (centres unmarked) [Compound 1, 1-(3-(7-(4-(morpholinomethyl)phenyl)-1H-pyrazolo[3,4-c]pyridin-5-yl)piperidin-1-yl)prop-2-en-1-one]
100 to 500 nM | C=CC(=O)N1CCCC(c2cc3cn[nH]c3c(-c3ccc(OC4COC4)cc3)n2)C1 (centres unmarked) [Compound 2, 1-(3-(7-(4-(oxetan-3-oxy)phenyl)-1H-pyrazolo[3,4-c]pyridin-5-yl)piperidin-1-yl)prop-2-en-1-one]
< 100 nM | C=CC(=O)N1CCCC(c2cc3cn[nH]c3c(-c3ccc(Oc4ccccc4)cc3)n2)C1 (centres unmarked) [Compound 3, 1-(3-(7-(4-phenoxyphenyl)-1H-pyrazolo[3,4-c]pyridin-5-yl)piperidin-1-yl)prop-2-en-1-one]
< 100 nM | CN(C)C/C=C/C(=O)N1CCCC(c2cc3cn[nH]c3c(-c3ccc(Oc4ccccc4)cc3)n2)C1 (centres unmarked) [Compound 4, (E)-4-(dimethylamino)-1-(3-(7-(4-phenoxyphenyl)-1H-pyrazolo[3,4-c]pyridin-5-yl)piperidin-1-yl)but-2-en-1-one]
< 100 nM | C=CS(=O)(=O)N1CCCC(c2cc3cn[nH]c3c(-c3ccc(Oc4ccccc4)cc3)n2)C1 (centres unmarked) [Compound 5, 7-(4-phenoxyphenyl)-5-(1-(ethenylsulfonyl)piperidin-3-yl)-1H-pyrazolo[3,4-c]pyridine]
< 100 nM | C=CC(=O)N1CCC(c2cc3cn[nH]c3c(-c3ccc(Oc4ccccc4)cc3)n2)C1 (centres unmarked) [Compound 6, 1-(3-(7-(4-phenoxyphenyl)-1H-pyrazolo[3,4-c]pyridin-5-yl)pyrrolidin-1-yl)prop-2-en-1-one]
< 100 nM | C=CC(=O)N1CCC(c2cc3cn[nH]c3c(-c3ccc(Oc4ccccc4)cc3)n2)CC1 [Compound 7, 1-(4-(7-(4-phenoxyphenyl)-1H-pyrazolo[3,4-c]pyridin-5-yl)piperidin-1-yl)prop-2-en-1-one]
< 100 nM | C=CC(=O)Nc1cccc(-c2cc3cn[nH]c3c(-c3ccc(Oc4ccccc4)cc3)n2)c1 [Compound 8, N-(3-(7-(4-phenoxyphenyl)-1H-pyrazolo[3,4-c]pyridin-5-yl)phenyl)acrylamide]
< 100 nM | C=CC(=O)N1CCN(c2cc3cn[nH]c3c(-c3ccc(Oc4ccccc4)cc3)n2)CC1 [Compound 9, 1-(4-(7-(4-phenoxyphenyl)-1H-pyrazolo[3,4-c]pyridin-5-yl)piperazin-1-yl)prop-2-en-1-one]
< 100 nM | C=CC(=O)NC1CCN(c2cc3cn[nH]c3c(-c3ccc(Oc4ccccc4)cc3)n2)C1 (centres unmarked) [Compound 10, N-(1-(7-(4-phenoxyphenyl)-1H-pyrazolo[3,4-c]pyridin-5-yl)pyrrolidin-3-yl)acrylamide]
< 100 nM | C=CC(=O)N1CCC(Nc2cc3cn[nH]c3c(-c3ccc(Oc4ccccc4)cc3)n2)C1 (centres unmarked) [Compound 11, 1-(3-((7-(4-phenoxyphenyl)-1H-pyrazolo[3,4-c]pyridin-5-yl)amino)pyrrolidin-1-yl)prop-2-en-1-one]
< 100 nM | C=CC(=O)N1CCC(c2cc3cn[nH]c3c(-c3ccc(OC4CCCC4)cc3)n2)CC1 [Compound 12]
< 100 nM | C=CC(=O)N1CCC(c2cc3cn[nH]c3c(-c3ccc(Oc4ccccn4)cc3)n2)CC1 [Compound 13, 1-(4-(7-(4-(pyridin-2-oxy)phenyl)-1H-pyrazolo[3,4-c]pyridin-5-yl)piperidin-1-yl)prop-2-en-1-one]
< 100 nM | C=CC(=O)N1CCC(c2cc3cn[nH]c3c(-c3ccc(Oc4ccccc4)cc3F)n2)CC1 [Compound 14, 1-(4-(7-(2-fluoro-4-phenoxyphenyl)-1H-pyrazolo[3,4-c]pyridin-5-yl)piperidin-1-yl)prop-2-en-1-one]
< 100 nM | C=CC(=O)N1CCC(c2cc3cn[nH]c3c(-c3ccc(Oc4cccc(F)c4)cc3)n2)CC1 [Compound 15, 1-(4-(7-(4-(3-fluorophenoxyl)phenyl)-1H-pyrazolo[3,4-c]pyridin-5-yl)piperidin-1-yl)prop-2-en-1-one]
> 500 nM | C=CC(=O)N1CCC(c2cc3cn[nH]c3c(-c3ccc(CN4CCCC4)cc3)n2)CC1 [Compound 16, 1-(4-(7-(4-(pyrrolidin-1-ylmethyl)phenyl)-1H-pyrazolo[3,4-c]pyridin-5-yl)piperidin-1-yl)prop-2-en-1-one]
100 to 500 nM | CC#CC(=O)N1CCCC(c2cc3cn[nH]c3c(-c3ccc(Oc4ccccc4)cc3)n2)C1 (centres unmarked) [Compound 17, 1-(3-(7-(4-phenoxyphenyl)-1H-pyrazolo[3,4-c]pyridin-5-yl)piperidin-1-yl)but-2-yn-1-one]
< 100 nM | C=CC(=O)N1CCC(c2cc3cn[nH]c3c(-c3ccc(C(=O)Nc4ccccn4)cc3)n2)C1 (centres unmarked) [Compound 18, 4-(5-(1-acryloylpyrrolidin-3-yl)-1H-pyrazolo[3,4-c]pyridin-7-yl)-N-(pyridin-2-yl) benzamide]
100 to 500 nM | CC#CC(=O)N1CCC(c2cc3cn[nH]c3c(-c3ccc(C(=O)Nc4ccccn4)cc3)n2)C1 (centres unmarked) [Compound 19, 4-(5-(1-(but-2-ynoyl)pyrrolidin-3-yl)-1H-pyrazolo[3,4-c]pyridin-7-yl)-N-(pyridin-2-yl)benzamide]
< 100 nM | C=CC(=O)N1CCCC(c2cc(-c3ccc(Oc4ccccc4)cc3)c3[nH]ncc3c2)C1 (centres unmarked) [Compound 20, 1-(3-(7-(4-phenoxyphenyl)-1H-indazol-5-yl)piperidin-1-yl)prop-2-en-1-one]
< 100 nM | C=CC(=O)N1CCCC1c1cc2cn[nH]c2c(-c2ccc(Oc3ccccc3)cc2)n1 (centres unmarked) [Compound 21, 1-(2-(7-(4-phenoxyphenyl)-1H-pyrazolo[3,4-c]pyridin-5-yl)pyrrolidin-1-yl)prop-2-en-1-one]
< 100 nM | C=CC(=O)N1CC[C@H](c2cc3cn[nH]c3c(-c3ccc(Oc4ccccc4)cc3)n2)C1 [Compound 22a, (S)-1-(3-(7-(4-phenoxyphenyl)-1H-pyrazolo[3,4-c]pyridin-5-yl)pyrrolidin-1-yl)prop-2-en-1-one]
< 100 nM | C=CC(=O)N1CC[C@@H](c2cc3cn[nH]c3c(-c3ccc(Oc4ccccc4)cc3)n2)C1 [Compound 22b, (R)-1-(3-(7-(4-phenoxyphenyl)-1H-pyrazolo[3,4-c]pyridin-5-yl)pyrrolidin-1-yl)prop-2-en-1-one]
